Results on 69 compounds are retold here after PubChem BioAssay AID179 (DTP/NCI, 2004).

Activity calls are given as the source filed them.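 How the source made its calls: active means compounds giving half or more protection of infected cells from virus-caused growth loss, again on retest; inactive means the rest.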 Where a SMILES comes first, the peptide text is derived from it. Some results are limits rather than exact numbers.

This assay concerns CEM cells HIV-1 protection, formazan growth assay. Put plainly: NCI AIDS Antiviral Assay. Conditions: for IC50: measured here: growth of uninfected CEM cells. A digest of the protocol:
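Protection of CEM cells against HIV-1 was scored from cell growth (soluble formazan) across five concentrations, with parallel uninfected cells. Lack of protection may reflect toxicity.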

Regarding `CC(C)CCCC(C)C1CCC2C3CCC4CC5(CCC4(C)C3CCC12C)NCCCS5` (stereo not drawn), the EC50 is over 1.58 µM and the IC50 is over 1.58 µM.

On to `CC1N=C(SCC(=O)c2ccc(F)cc2)N2C(C)N=C(SCC(=O)c3ccc(F)cc3)N12` (stereo not drawn), for which the EC50 is over 75.9 µM and the IC50 was over 75.9 µM.

With `CN(C)CCCNc1ccc2c(=O)n(CCN(C)C)c(=O)n3c4ccccc4c(=O)c1c23`, the EC50 was over 0.2 µM and the half-maximal inhibitory concentration (IC50) came to 0.0776 µM.

For `CCOC(=O)CC1(N)CC2c3ccccc3OC(=O)C2C(=O)N1` (stereo not drawn), the EC50 was over 200 µM and the IC50 is over 200 µM.

Consider `C[C@@H]1CN2SN1C[C@@H]2C`, for which the EC50 was over 1740 µM and the IC50 is over 1740 µM.

As to `CCCCCCCCCCCCCCCCCCNc1nc(=O)n(C2CC(OC(C)=O)C(COP(=O)(O)OCC3CCC(n4ccc(NC(=O)CCCCCCCCCCCCCCC)nc4=O)O3)O2)cc1F` (stereo not drawn), the EC50 was 10 µM and the IC50 stood at 44.7 µM.

On to `COc1ccc(C(=O)/C=C/c2ccc(OCCCOc3ccc(/C=C/C(=O)c4ccc(OC)cc4)cc3)cc2)cc1`, for which the EC50 is over 200 µM and the half-inhibitory concentration (IC50) is over 200 µM.

On to `COc1ccc(N2C(=O)C3c4[nH]c5ccc(OC)cc5c4C4CCC(c5ccccc5)CC4C3C2=O)cc1` (stereo not drawn), for which the EC50 was over 100 µM and the IC50 amounted to 67.6 µM.

As for `O=c1[nH]c(=O)n(C2OC(CF)C(O)C2O)cc1Br` (stereo not drawn), the EC50 is over 200 µM and the half-inhibitory concentration (IC50) was over 200 µM.

As to `CC1(c2nc3ccccc3[nH]2)CCC(C(N)=O)C(C)(C)O1` (stereo not drawn), the EC50 was over 200 µM and the IC50 was over 200 µM.

With `Cc1cccc(NC(=O)Cc2nc3ccccc3s2)c1C`, the EC50 was over 17.8 µM and the IC50 is over 17.8 µM.

Take `O=C1C(=O)N(c2ccc(Cl)cc2Cl)C(=O)C(=O)C1c1nc2ccccc2s1`: the EC50 was over 85.1 µM and the IC50 was over 85.1 µM.

Regarding `COc1ccc(CC#C/C=C/C(=O)NCC(C)C)cc1`, the EC50 was over 95.5 µM and the IC50 amounted to 14.1 µM.

On to `COc1ccc(NC(C)=O)cc1N1C(=O)/C(=C\c2cc(OC)c(OC)c(OC)c2)S(=O)(=O)C1c1ccccc1` (stereo not drawn), for which the EC50 is over 200 µM and the IC50 is 91.2 µM.

In the case of `CC[C@]1(Cc2ccc(OC)c(OC)c2)C2CC(C(=O)OC)ON2O[C@H](OCc2ccccc2)[C@@H]1OC(C)=O` (stereo partly drawn), the EC50 is over 200 µM and the IC50 stood at 102 µM.

Take `C1=NCCNCCNCCN=Cc2ccccc2OCc2cccc(n2)COc2ccccc21`: the EC50 is over 50.1 µM and the IC50 is 7.76 µM.

For the compound `COc1ccc(C(O)c2nccn2C)c(OC)c1` (stereo not drawn), the EC50 is over 200 µM and the half-maximal inhibitory concentration (IC50) is over 200 µM.

As for `CCOc1ccccc1N=Nc1ccc2oc(=O)c(C(=O)Nc3cccc(C)c3)cc2c1`, the EC50 is over 43.7 µM and the IC50 was over 43.7 µM.

Consider `c1ccc2[nH]c(SSSSc3nc4ccccc4[nH]3)nc2c1`, for which the EC50 is over 200 µM and the IC50 is over 200 µM.

Turning to `NC(=S)NN/C=C(\C=Nc1ccccc1)[N+](=O)[O-]`, the EC50 is over 355 µM and the IC50 was 178 µM.

In the case of `CC1=NN(C(=O)c2cc(Cl)cc([N+](=O)[O-])c2)C(=O)C1N=Nc1ccccc1C(=O)O` (stereo not drawn), the result was inactive.

`CN(C)CCC[N+]1=Nc2cccc3cccc(c23)N1`: the outcome was inactive.

For `O=C(Nc1ccc2c(O)cc(S(=O)(=O)O)cc2c1)Nc1ccc2c(O)c(N=Nc3ccc4cc(S(=O)(=O)O)ccc4c3)c(S(=O)(=O)O)cc2c1`, the outcome was active.

For the compound `CC1(C)CC(=O)C2=C(C1)OC1=C(C(=O)CC(C)(C)C1)C2CC(c1ccccc1)c1ccc(O)c(O)c1O` (stereo not drawn), the EC50 was over 200 µM and the IC50 was found to be 8.51 µM.

`Fc1ccc(OCc2nc3cc(C(F)(F)F)ccc3nc2-c2ccccc2)cc1`: the EC50 is over 200 µM and the IC50 turned out to be 138 µM.

With `C=C(C)CNC(=S)N(N)c1ccc2ccccc2c1`, the EC50 is over 200 µM and the IC50 was found to be 58.9 µM.

Regarding `CCc1n[nH]c(=O)n1CCCCCCCCn1c(CC)n[nH]c1=O`, the EC50 was over 200 µM and the IC50 was over 200 µM.

`C=C(C)[C@H]1C2=CC(C(=O)OC)=C(C[C@H](C(=C)C)[C@@H](O)[C@@H](O)C3=C[C@H]1OC3=O)O2`: the EC50 was over 200 µM and the IC50 was 93.3 µM.

`O=C(O)c1ccc2c(c1)S(=O)(=O)c1ccccc1C2=O`: the EC50 was over 200 µM and the half-inhibitory concentration (IC50) was over 200 µM.

On to `CC(C)=CCC/C(C)=C/CC/C(C)=C/Cc1c[nH]c2ccccc12`, for which the EC50 is over 6.17 µM and the IC50 was over 6.17 µM.

Consider `CCCc1nc2c(nc1C)C(=O)C=CC2=O`, for which the EC50 is over 832 µM and the IC50 was 17 µM.

On to `O=C1CSC(c2ccc(Cl)cc2)N1N1C(=O)CSC1c1ccc(Cl)cc1` (stereo not drawn), for which the EC50 is over 151 µM and the IC50 was over 151 µM.

Regarding `Cn1c(SCc2ccc(F)cc2)nnc1C12CC3CC(CC(C3)C1)C2`, the EC50 is over 200 µM and the concentration for half-maximal inhibition (IC50) came out at 105 µM.

Consider `O=C1/C(=C/c2ccco2)NC(=S)N1CN1CCCCC1`, for which the EC50 is over 200 µM and the IC50 is 32.4 µM.

With `CN(C)Cc1cc(N=Nc2ccc(Cl)c(Cl)c2)ccc1O`, the EC50 was over 200 µM and the IC50 is 18.6 µM.

`Cc1ccc(S(=O)(=O)c2ccsc2NC(=O)C(F)(F)F)cc1`: the EC50 is over 200 µM and the IC50 was determined as 46.8 µM.

Take `CC(OC1CC(=O)CC2C(=O)C=CC(=O)C12)c1ccccc1` (stereo not drawn): the EC50 is over 603 µM and the IC50 amounted to 3.31 µM.

As for `CC(C)CC(NC(=O)C(CO)NC(=O)C(CCCCN)NC(=O)C(CCCCN)NC(=O)C(NC(=O)CNC(=O)C(C)NC(=O)C(CCCN=C(N)N)NC(=O)C(NC(=O)C(N)C(C)C)C(C)C)C(C)C)C(=O)O` (stereo not drawn) (H-VVRAGVKKSL-OH; configuration not given here), the outcome was inactive.

Turning to `CC1(C)OC1COc1c2occc2cc2ccc(=O)oc12` (stereo not drawn), the EC50 was over 155 µM and the IC50 was 74.1 µM.

Turning to `CCCCC1(OC(=O)CCC(=O)O)CCC2(CCC(C)C(C/C=C(C)/C=C/C(O)C(C)/C=C/C(=O)O)O2)OC1CC/C(C)=C/C(=O)O` (stereo not drawn), the EC50 was over 3.8 µM and the IC50 was 1.29 µM.

With `Cc1cc(C)c(S(=O)(=O)ONC(=O)OC(C)(C)C)c(C)c1`, the result was inactive.

As to `CCCCN=Cc1c(O)c(O)c(C(C)C)c2cc(C)c(-c3c(C)cc4c(C(C)C)c(O)c(O)c(C=NCCCC)c4c3O)c(O)c12`, the outcome was inactive.

With `O=C(N[C@@H](CSSC[C@H](NC(=O)OCc1ccccc1)C(=O)O)C(=O)O)OCc1ccccc1`, the EC50 was over 200 µM and the IC50 worked out at 74.1 µM.

As for `CCCCNCc1cc(S(=O)(=O)N2CCCCC2)c2cccnc2c1O`, the EC50 was over 47.9 µM and the IC50 came to 8.91 µM.

Take `O=C(CCC1C(=O)NC(=S)NC1=O)c1ccc2ccccc2c1`: the EC50 is over 110 µM and the IC50 was over 110 µM.

Consider `CCCNC(=O)OCCCOC(=O)/C=C(\C(=O)OCCCOC(=O)NCCC)N1[C@H](C)Cc2c(-c3cc(-c4cc(-c5c(O)cc(O)c6c5C[C@@H](C)N[C@@H]6C)c5cc(C)cc(OC)c5c4O)c(O)c4c(OC)cc(C)cc34)c(O)cc(O)c2[C@H]1C`, for which the EC50 is over 25.1 µM and the 50% inhibitory concentration (IC50) was over 25.1 µM.

As to `[Pt].c1ccc(P(CCP(CCP(c2ccccc2)c2ccccc2)CCP(c2ccccc2)c2ccccc2)c2ccccc2)cc1`, the EC50 is over 5.62 µM and the IC50 amounted to 2.95 µM.

On to `COc1ccc2c(O)c(Cc3ccc(OC)c(OC)c3)c(=O)oc2c1`, for which the result was inactive.

For `CCN(CC)C(=O)c1cc([N+](=O)[O-])c(=O)n2c1[nH]c1ccccc12`, the EC50 was over 200 µM and the IC50 is 151 µM.

With `CCOC(=O)c1cnc2c(ccc3ncccc32)c1OCC`, the EC50 was over 120 µM and the half-inhibitory concentration (IC50) came out at 72.4 µM.

`OC(CC(O)(C(F)(F)Cl)C(F)(F)Cl)c1ccccc1` (stereo not drawn): the EC50 was over 200 µM and the IC50 turned out to be 44.7 µM.

Consider `COC(=O)c1c2c(n(CCO)c1OC)C(=O)c1ccccc1C2=O`, for which the EC50 is over 200 µM and the IC50 was 81.3 µM.

As for `COc1cccc(C(=O)C#Cc2cnc(OC)nc2OC)c1`, the EC50 was over 0.2 µM and the half-inhibitory concentration (IC50) stood at 0.0437 µM.

Consider `Nn1c(-c2ccccc2)nn(C(=O)c2ccccc2)c1=O`, for which the EC50 is over 200 µM and the IC50 is over 200 µM.

Turning to `CC1(C)OC(=O)C(=Cc2ccccc2Cl)C(=O)O1`, the EC50 is over 490 µM and the IC50 came out at 2.45 µM.

For `O=c1cc(CCc2ccccc2)oc2c(O)ccc(O)c12`, the outcome was inactive.

Turning to `O=C(N/C(=C\c1ccc2c(c1)OCO2)c1nc2ccccc2[nH]1)c1ccccc1`, the EC50 was over 26.3 µM and the IC50 was over 26.3 µM.

Regarding `COc1cccc(/C=N\NC(=O)C(C)SC(C)C(=O)N/N=C/c2cccc(OC)c2)c1` (stereo not drawn), the result was inactive.

As for `O=Cc1c(O)c2ccccc2[nH]c1=O`, the EC50 is over 5.5 µM and the IC50 is over 5.5 µM.

`c1cnc(NCCSSCCNc2ncccn2)nc1`: the EC50 was over 200 µM and the 50% inhibitory concentration (IC50) is 38 µM.

As to `O=C1OC2(OC2c2ccccc2)c2ccccc21` (stereo not drawn), the EC50 was over 200 µM and the IC50 is over 200 µM.

Turning to `O=C(CN1CCCCC1)c1ccc(CCc2ccc(C(=O)CN3CCCCC3)cc2)cc1`, the EC50 was over 200 µM and the IC50 is 95.5 µM.

For the compound `Cc1ccc(C=C2C(=O)NC(=O)NC2=O)cc1`, the EC50 was over 155 µM and the IC50 was over 155 µM.

Take `S=C1C(=Nc2ccccc2)N(C2CCCCC2)C(=NC2CCCCC2)N1c1ccccc1`: the EC50 was over 200 µM and the IC50 was determined as 141 µM.

For the compound `CCN(CC)c1ccc(Cl)c2c1C(O)(C(C)C)C2(C)C` (stereo not drawn), the EC50 is over 200 µM and the IC50 came to 58.9 µM.

As to `O=C1c2ccccc2C(=O)c2c(SSc3cccc4c3C(=O)c3ccccc3C4=O)cccc21`, the EC50 was over 200 µM and the IC50 is over 200 µM.

Turning to `Clc1cccc(NC2=NCCN=C(Nc3cccc(Cl)c3Cl)SS2)c1Cl`, the EC50 was over 200 µM and the IC50 is 21.4 µM.

Take `Cc1cc(Cl)ccc1NC(=O)C1C(=O)N(c2ccc(Cl)cc2C)C(=O)/C1=N\N` (stereo not drawn): the result was inactive.

For `CCn1c2ccccc2c2nnc(NCCCO)nc21`, the EC50 is over 200 µM and the IC50 turned out to be 141 µM.

As a reminder, the EC50 is the concentration giving half of the maximal effect. What is called IC50 is the concentration needed to halve the response being measured. Low readings indicate higher potency, high ones lower potency.
